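48-hour exposure; five concentrations; linearly interpolated endpoints. TGI is the concentration that stops growth completely.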
Experiments:
Experiment in all cases: growth of human tumour cells (NCI), 48 h
SK-OV-3 ovarian = system: SK-OV-3 ovarian
CCRF-CEM leukemia = system: CCRF-CEM leukemia
UACC-62 melanoma = system: UACC-62 melanoma
MALME-3M melanoma = system: MALME-3M melanoma
HCT-15 colon = system: HCT-15 colon
SW-620 colon = system: SW-620 colon
KM12 colon = system: KM12 colon
RPMI-8226 leukemia = system: RPMI-8226 leukemia
OVCAR-3 ovarian = system: OVCAR-3 ovarian
SF-268 CNS = system: SF-268 CNS
M14 melanoma = system: M14 melanoma
NCI-H522 lung = system: NCI-H522 lung
M19-MEL melanoma = system: M19-MEL melanoma
IGROV1 ovarian = system: IGROV1 ovarian
KM20L2 colon = system: KM20L2 colon
K-562 leukemia = system: K-562 leukemia
HCC-2998 colon = system: HCC-2998 colon
NCI-H460 lung = system: NCI-H460 lung
ACHN renal = system: ACHN renal
A549 NSCLC = system: A549 NSCLC
LOX IMVI melanoma = system: LOX IMVI melanoma
RXF 393 renal = system: RXF 393 renal
OVCAR-4 ovarian = system: OVCAR-4 ovarian
SK-MEL-2 melanoma = system: SK-MEL-2 melanoma
UO-31 renal = system: UO-31 renal
NCI-H23 lung = system: NCI-H23 lung
SK-MEL-5 melanoma = system: SK-MEL-5 melanoma
DMS 273 small cell lung = system: DMS 273 small cell lung
HL-60(TB) leukemia = system: HL-60(TB) leukemia
OVCAR-8 ovarian = system: OVCAR-8 ovarian
SNB-75 CNS = system: SNB-75 CNS
U251 CNS = system: U251 CNS
SF-295 CNS = system: SF-295 CNS
HOP-92 NSCLC = system: HOP-92 NSCLC
786-0 renal = system: 786-0 renal
DLD-1 colon = system: DLD-1 colon
OVCAR-5 ovarian = system: OVCAR-5 ovarian
LXFL 529 NSCLC = system: LXFL 529 NSCLC
SF-539 CNS = system: SF-539 CNS
SK-MEL-28 melanoma = system: SK-MEL-28 melanoma
COLO 205 colon = system: COLO 205 colon
HT29 colon = system: HT29 colon
SN12C renal = system: SN12C renal
UACC-257 melanoma = system: UACC-257 melanoma
EKVX NSCLC = system: EKVX NSCLC
SNB-19 CNS = system: SNB-19 CNS
TK-10 renal = system: TK-10 renal
CAKI-1 renal = system: CAKI-1 renal
MOLT-4 leukemia = system: MOLT-4 leukemia
DMS 114 small cell lung = system: DMS 114 small cell lung
HOP-18 NSCLC = system: HOP-18 NSCLC
SR leukemia = system: SR leukemia
HCT-116 colon = system: HCT-116 colon
SNB-78 CNS = system: SNB-78 CNS
XF 498 CNS = system: XF 498 CNS
HOP-62 NSCLC = system: HOP-62 NSCLC
NCI-H226 lung = system: NCI-H226 lung

`CCOC(=O)/C(C#N)=C1/C(O)=C(C(=O)OC)C(C(=O)OC)=C1C(=O)OC` was tested. Which TGI (SK-OV-3 ovarian) did it give?
The TGI was greater than 100 µM.

What about the TGI (CCRF-CEM leukemia) of the same compound?
The TGI was greater than 100 µM.

What about the TGI (UACC-62 melanoma) of the same compound?
Its TGI is greater than 100 µM.

What about the TGI (MALME-3M melanoma) of the same compound?
The TGI was greater than 100 µM.

What about the TGI (HCT-15 colon) of the same compound?
The TGI was greater than 100 µM.

And the TGI (SW-620 colon)?
The TGI was greater than 100 µM.

And the TGI (KM12 colon)?
The TGI was greater than 100 µM.

And the TGI (RPMI-8226 leukemia)?
Its TGI is greater than 100 µM.

And the TGI (OVCAR-3 ovarian)?
The TGI was greater than 100 µM.

What about the TGI (SF-268 CNS) of the same compound?
Its TGI is greater than 100 µM.

And the TGI (M14 melanoma)?
Its TGI is greater than 100 µM.

What about the TGI (NCI-H522 lung) of the same compound?
The TGI was greater than 100 µM.

What about the TGI (M19-MEL melanoma) of the same compound?
Its TGI is greater than 100 µM.

And the TGI (IGROV1 ovarian)?
The TGI was greater than 100 µM.

What about the TGI (KM20L2 colon) of the same compound?
Its TGI is greater than 100 µM.

What about the TGI (K-562 leukemia) of the same compound?
Its TGI is greater than 100 µM.

What about the TGI (HCC-2998 colon) of the same compound?
Its TGI is greater than 100 µM.

What about the TGI (NCI-H460 lung) of the same compound?
The TGI was greater than 100 µM.

And the TGI (ACHN renal)?
Its TGI is greater than 100 µM.

What about the TGI (A549 NSCLC) of the same compound?
Its TGI is greater than 100 µM.

What about the TGI (LOX IMVI melanoma) of the same compound?
Its TGI is greater than 100 µM.

And the TGI (RXF 393 renal)?
The TGI was greater than 100 µM.

And the TGI (OVCAR-4 ovarian)?
The TGI was greater than 100 µM.

And the TGI (SK-MEL-2 melanoma)?
Its TGI is greater than 100 µM.

And the TGI (UO-31 renal)?
The TGI was greater than 100 µM.

And the TGI (NCI-H23 lung)?
Its TGI is greater than 100 µM.

And the TGI (SK-MEL-5 melanoma)?
The TGI was greater than 100 µM.

And the TGI (DMS 273 small cell lung)?
Its TGI is greater than 100 µM.

And the TGI (HL-60(TB) leukemia)?
The TGI was greater than 100 µM.

What about the TGI (OVCAR-8 ovarian) of the same compound?
The TGI was greater than 100 µM.

What about the TGI (SNB-75 CNS) of the same compound?
Its TGI is greater than 100 µM.

And the TGI (U251 CNS)?
The TGI was greater than 100 µM.

What about the TGI (SF-295 CNS) of the same compound?
The TGI was greater than 100 µM.

What about the TGI (HOP-92 NSCLC) of the same compound?
Its TGI is greater than 100 µM.

What about the TGI (786-0 renal) of the same compound?
Its TGI is greater than 100 µM.

And the TGI (DLD-1 colon)?
The TGI was greater than 100 µM.

And the TGI (OVCAR-5 ovarian)?
Its TGI is greater than 100 µM.

What about the TGI (LXFL 529 NSCLC) of the same compound?
The TGI was greater than 100 µM.

And the TGI (SF-539 CNS)?
The TGI was greater than 100 µM.

What about the TGI (SK-MEL-28 melanoma) of the same compound?
Its TGI is greater than 100 µM.

What about the TGI (COLO 205 colon) of the same compound?
Its TGI is greater than 100 µM.

And the TGI (HT29 colon)?
Its TGI is greater than 100 µM.

What about the TGI (SN12C renal) of the same compound?
The TGI was greater than 100 µM.

And the TGI (UACC-257 melanoma)?
The TGI was greater than 100 µM.

And the TGI (EKVX NSCLC)?
The TGI was greater than 100 µM.

And the TGI (SNB-19 CNS)?
The TGI was greater than 100 µM.

And the TGI (TK-10 renal)?
The TGI was greater than 100 µM.

What about the TGI (CAKI-1 renal) of the same compound?
The TGI was greater than 100 µM.

What about the TGI (MOLT-4 leukemia) of the same compound?
Its TGI is greater than 100 µM.

How did the TGI (SK-OV-3 ovarian) turn out when `N#C/C(=C/Sc1ccccc1)C(=O)O` was run?
Its TGI is greater than 100 µM.

What about the TGI (DMS 114 small cell lung) of the same compound?
The TGI was 35.8 µM.

What about the TGI (CCRF-CEM leukemia) of the same compound?
Its TGI is greater than 100 µM.

And the TGI (HOP-18 NSCLC)?
The TGI was greater than 100 µM.

And the TGI (UACC-62 melanoma)?
The TGI was greater than 100 µM.

What about the TGI (HCT-15 colon) of the same compound?
Its TGI is greater than 100 µM.

And the TGI (SW-620 colon)?
Its TGI is greater than 100 µM.

What about the TGI (SR leukemia) of the same compound?
Its TGI is greater than 100 µM.

What about the TGI (KM12 colon) of the same compound?
Its TGI is 99.3 µM.

What about the TGI (RPMI-8226 leukemia) of the same compound?
The TGI was greater than 100 µM.

And the TGI (HCT-116 colon)?
Its TGI is 55.8 µM.

And the TGI (OVCAR-3 ovarian)?
Its TGI is 78.5 µM.

And the TGI (SF-268 CNS)?
The TGI was 53.7 µM.

What about the TGI (M14 melanoma) of the same compound?
Its TGI is 57.2 µM.

And the TGI (NCI-H522 lung)?
Its TGI is 23.4 µM.

And the TGI (M19-MEL melanoma)?
The TGI was 74 µM.

What about the TGI (IGROV1 ovarian) of the same compound?
Its TGI is 37.2 µM.

And the TGI (KM20L2 colon)?
The TGI was 91.2 µM.

And the TGI (K-562 leukemia)?
The TGI was greater than 100 µM.

And the TGI (NCI-H460 lung)?
The TGI was greater than 100 µM.

And the TGI (ACHN renal)?
The TGI was greater than 100 µM.

What about the TGI (A549 NSCLC) of the same compound?
The TGI was greater than 100 µM.

And the TGI (SNB-78 CNS)?
Its TGI is 59.5 µM.

And the TGI (LOX IMVI melanoma)?
Its TGI is 24.5 µM.

And the TGI (RXF 393 renal)?
The TGI was 58.2 µM.

And the TGI (OVCAR-4 ovarian)?
The TGI was greater than 100 µM.

What about the TGI (SK-MEL-2 melanoma) of the same compound?
Its TGI is 72.3 µM.

And the TGI (UO-31 renal)?
Its TGI is 41.4 µM.

What about the TGI (NCI-H23 lung) of the same compound?
The TGI was greater than 100 µM.

What about the TGI (XF 498 CNS) of the same compound?
Its TGI is greater than 100 µM.

And the TGI (SK-MEL-5 melanoma)?
The TGI was greater than 100 µM.

What about the TGI (DMS 273 small cell lung) of the same compound?
Its TGI is 72.6 µM.

And the TGI (HOP-62 NSCLC)?
The TGI was greater than 100 µM.

And the TGI (HL-60(TB) leukemia)?
Its TGI is greater than 100 µM.

And the TGI (OVCAR-8 ovarian)?
Its TGI is 36.9 µM.

And the TGI (SNB-75 CNS)?
The TGI was 55.9 µM.

And the TGI (U251 CNS)?
Its TGI is 45.9 µM.

What about the TGI (SF-295 CNS) of the same compound?
Its TGI is greater than 100 µM.

What about the TGI (HOP-92 NSCLC) of the same compound?
Its TGI is greater than 100 µM.

What about the TGI (NCI-H226 lung) of the same compound?
The TGI was 58.7 µM.

And the TGI (786-0 renal)?
Its TGI is 77.9 µM.

And the TGI (DLD-1 colon)?
Its TGI is greater than 100 µM.

And the TGI (OVCAR-5 ovarian)?
Its TGI is 74.6 µM.

And the TGI (LXFL 529 NSCLC)?
Its TGI is greater than 100 µM.

And the TGI (SF-539 CNS)?
Its TGI is 35.2 µM.

What about the TGI (SK-MEL-28 melanoma) of the same compound?
The TGI was greater than 100 µM.

What about the TGI (COLO 205 colon) of the same compound?
The TGI was 47.5 µM.

And the TGI (HT29 colon)?
The TGI was 84.1 µM.

What about the TGI (SN12C renal) of the same compound?
The TGI was 57.5 µM.

What about the TGI (UACC-257 melanoma) of the same compound?
The TGI was greater than 100 µM.

And the TGI (EKVX NSCLC)?
The TGI was greater than 100 µM.

And the TGI (SNB-19 CNS)?
Its TGI is greater than 100 µM.

What about the TGI (TK-10 renal) of the same compound?
Its TGI is greater than 100 µM.

What about the TGI (CAKI-1 renal) of the same compound?
Its TGI is 79.5 µM.

What about the TGI (MOLT-4 leukemia) of the same compound?
Its TGI is greater than 100 µM.
